We go through 3 compounds from article PMC9295786, “Discovery of potent BET bromodomain 1 stereoselective inhibitors using DNA-encoded chemical library selections” (Proceedings of the National Academy of Sciences of the …, 2022).

pEC50, pIC50, pKd: −log10 of the molar value. Where two headings read alike, the source gives them in different places.

Data set [1] concerns the target T1, BRD2-BD1 (Homo sapiens, UniProt P25440).
T1 construct: two similar tandem bromodomains (BD1 and BD2); purchased Eurofins DiscoverX (Fremont, CA); host or cells: E. coli host derived from the BL21 strain, T7 phage
The conditions noted are these: cited from earlier work.

Data set [2] addresses T2, BRD4-BD1 (Homo sapiens, UniProt O60885). Also noted: the bromodomain 1 (BD1) of BRD4; purchased Eurofins DiscoverX (Fremont, CA); host or cells: E. coli host derived from the BL21 strain, T7 phage. The conditions noted are these: BROMOscan assays; cited from earlier work.
For data set [3], the target named is T2, BRD4-BD1. Also noted: the bromodomain 1 (BD1) of BRD4; purchased Eurofins DiscoverX (Fremont, CA); host or cells: E. coli host derived from the BL21 strain, T7 phage. The following applies: read-out: IC50 BRD4-BD1 AlphaScreen; cited from earlier work.
The target of the next data set is T3, BRDT-BD2 (Homo sapiens, UniProt Q58F21).
T3 construct: two similar tandem bromodomains (BD1 and BD2); made in house; host or cells: bacteria (pET15b or pET28b vector)
In words: AlphaScreen competition assay with biotinylated JQ1. Format: binding. The conditions noted are these: read-out: BRDT-BD2 IC50. On the technique in general: In Alpha technology, singlet oxygen from a donor bead excites a nearby acceptor bead.

The next data set deals with T4, BRD4-BD2 (Homo sapiens, UniProt O60885).
T4 construct: two similar tandem bromodomains (BD1 and BD2); made in house; host or cells: bacteria (pET15b or pET28b vector)
Described as above. It counts as binding. The following applies: read-out: BRD4-BD2 IC50.

A short description of data set [4]: Metabolic stability assay in liver microsomes (MLM). It counts as in vitro ADME. The conditions noted are these: mouse liver microsomes 0.5 mg protein/mL, compound 2.0 μM, NADPH 1.0 mM; read-out: MLM t1/2 (half-life).
The nature of data set [5]: Metabolic stability assay in liver microsomes (HLM). The conditions noted are these: human liver microsomes 0.5 mg protein/mL, compound 2.0 μM, NADPH 1.0 mM; read-out: HLM t1/2 (half-life). Format: in vitro ADME. For orientation: Liver microsomes are a subcellular fraction often used to study metabolism.
The target of data set [6] is T1, BRD2-BD1. Kind of data set: BromoKdELECT assay. It counts as binding.
For another data set, the target named is T5, BRD2-BD2 (Homo sapiens, UniProt P25440).
T5 construct: two similar tandem bromodomains (BD1 and BD2); purchased Eurofins DiscoverX (Fremont, CA); host or cells: E. coli host derived from the BL21 strain, T7 phage
Kind of data set: BromoKdELECT assay. It counts as binding.

The target of a further data set is T6, BRD3-BD2 (Homo sapiens, UniProt Q15059).
T6 construct: two similar tandem bromodomains (BD1 and BD2); purchased Eurofins DiscoverX (Fremont, CA); host or cells: E. coli host derived from the BL21 strain, T7 phage
In words: BromoKdELECT assay. It counts as binding.

The next data set addresses T7, BRD3-BD1 (Homo sapiens, UniProt Q15059).
T7 construct: two similar tandem bromodomains (BD1 and BD2); purchased Eurofins DiscoverX (Fremont, CA); host or cells: E. coli host derived from the BL21 strain, T7 phage
In words: BromoKdELECT assay. Format: binding.

Data set [7] relates to MV4;11 cells. In words: Cell viability by CellTiterGlo. It counts as cell-based. The following applies: Homo sapiens, MV4-11. A general note: ATP-based viability assays read luminescence as a measure of living cells.
Data set [8] relates to MOLM-13 cells. Kind of data set: Cell viability by CellTiterGlo. The following applies: Homo sapiens, MOLM-13; 72 h of treatment, CellTiterGlo, normalized to DMSO; read-out: Viability IC50 MOLM-13. It counts as cell-based.
Another data set relates to THP1 cells. Kind of data set: Cell viability by CellTiterGlo. It counts as cell-based. The conditions noted are these: Homo sapiens, THP-1; 72 h of treatment, CellTiterGlo, normalized to DMSO; read-out: Viability IC50 THP1.
The next data set concerns Kasumi1 cells. Kind of data set: Cell viability by CellTiterGlo. Format: cell-based. The following applies: Homo sapiens, Kasumi 1; 72 h of treatment, CellTiterGlo, normalized to DMSO; read-out: Viability IC50 Kasumi1.
In data set [9] the test system is MV4;11 cells. In words: Cell cycle analysis by flow cytometry. Format: cell-based. The following applies: 24 h of treatment at the IC50.
Data set [10] deals with MOLM-13 cells. Kind of data set: Cell cycle analysis by flow cytometry. Format: cell-based. The conditions noted are these: 24 h of treatment at the IC50.
In data set [11] the test system is MV4;11 cells. In words: Apoptosis detection (Annexin V) by flow cytometry. It counts as cell-based. The following applies: 72 h of treatment.
Data set [12] deals with MOLM-13 cells. Kind of data set: Apoptosis detection (Annexin V) by flow cytometry. It counts as cell-based. The conditions noted are these: 72 h of treatment.
Data set [13] deals with MYC expression in MOLM-13 cells. Kind of data set: MYC expression by RT-qPCR. It counts as cell-based. The conditions noted are these: 8 h of treatment.
Data set [14] deals with MYC expression in MV4;11 cells. In words: MYC expression by RT-qPCR. It counts as cell-based. The conditions noted are these: 8 h of treatment.
Data set [15] has as its target T2, BRD4-BD1. In words: AlphaScreen competition assay with biotinylated JQ1. It counts as binding. More on the design: the bromodomain 1 (BD1) of BRD4; made in house; host or cells: bacteria (pET15b or pET28b vector).
The target in data set [16] is T8, BRDT-BD1 (Homo sapiens, UniProt Q58F21). The data set is described as above. Format: binding. Also noted: the first bromodomain of BRDT (BRDT-BD1); made in house; host or cells: bacteria (pET15b or pET28b vector).
Data set [17] has as its target T2, BRD4-BD1. Kind of data set: BromoKdELECT assay. It counts as binding. More on the design: the bromodomain 1 (BD1) of BRD4; purchased Eurofins DiscoverX (Fremont, CA); host or cells: E. coli host derived from the BL21 strain, T7 phage.
Data set [18] addresses T8, BRDT-BD1. Kind of data set: BromoKdELECT assay. It counts as binding. Also noted: the first bromodomain of BRDT (BRDT-BD1); purchased Eurofins DiscoverX (Fremont, CA); host or cells: E. coli host derived from the BL21 strain, T7 phage.
The target in another data set is TAF1-BD2. The following applies: BROMOscan profile; cited from earlier work.
The target in the next data set is TAF1L-BD2. The following applies: BROMOscan profile; cited from earlier work.

T7 sequence (Q15059 34-140 limits assumed): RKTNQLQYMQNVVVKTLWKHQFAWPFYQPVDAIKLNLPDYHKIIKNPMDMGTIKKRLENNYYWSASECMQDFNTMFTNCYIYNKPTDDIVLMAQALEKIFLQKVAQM
T1 sequence (P25440 74-180 limits assumed): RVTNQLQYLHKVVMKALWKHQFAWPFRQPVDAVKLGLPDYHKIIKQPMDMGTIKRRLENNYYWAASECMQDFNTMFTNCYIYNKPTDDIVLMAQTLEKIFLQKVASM
T5 sequence (P25440 344-453 limits assumed): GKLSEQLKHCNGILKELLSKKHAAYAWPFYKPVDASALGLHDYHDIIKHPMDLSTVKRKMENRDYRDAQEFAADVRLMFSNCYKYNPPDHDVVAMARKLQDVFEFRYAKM
T6 sequence (Q15059 306-415 limits assumed): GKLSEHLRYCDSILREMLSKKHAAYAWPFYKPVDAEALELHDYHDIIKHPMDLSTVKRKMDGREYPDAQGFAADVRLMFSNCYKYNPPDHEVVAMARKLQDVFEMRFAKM

As a reminder, the pIC50 is the negative decadic logarithm of the IC50, by convention in mol/L. Turning to `COc1ccccc1S(=O)(=O)Nc1ccc2c3c(cc(-n4cnc(C)c4)nc13)C(=O)N2C` [LT052], the values for the pIC50 at BRD2-BD1 [1] and on BRD4-BD1 [3] were 5.05 and 7.06, respectively. The “selectivity for BRD4-BD1 over BRD4-BD2” value on BRD4-BD1 [2] is reported as 138 fold.
Usually pKd stands for the Kd on a negative log10 scale, so that one unit is a factor of ten. By pEC50 is commonly meant the EC50 on a negative log10 scale, so that one unit is a factor of ten. With `CNC(=O)[C@@H](CC1CCN(C(=O)Cc2ccc3[nH]c(=O)cc(C)c3c2)CC1)NC(=O)c1ccc(-c2ccc(C)cc2C)cn1` [CDD-787], the pIC50 on BRDT-BD2 was 4.98; at BRD4-BD2, 4.89; at BRD2-BD1 [6] (BromoKdELECT, read-out: IC50 against BRD2-BDT1), 9.59; at BRD3-BD1 (BromoKdELECT, read-out: IC50 against BRD3-BD1), 9.89; with MV4;11 cells [7] (72 h of treatment, CellTiterGlo, normalized to DMSO, read-out: Viability IC50 MV4;11), 8.08; in the data set with MOLM-13 cells [8] it was 7.80. Also, the pIC50 in the data set with THP1 cells was 7.93; with Kasumi1 cells, 8.08; on BRD4-BD1 [15] (read-out: BRD4-BD1 IC50), 8.48; on BRDT-BD1 [16], 8.68; at BRD4-BD1 [17] (read-out: IC50 against BRD4-BD1), 9.54; on BRDT-BD1 [18] (read-out: IC50 against BRDT-BD1), 9.66. Besides, the half-life at 2 μM is 13 min in data set [4] and 33 min in data set [5]. In addition, the pKd is 9.59 on BRD2-BD1 [6] (BromoKdELECT); 6.96 at BRD2-BD2; 6.11 on BRD3-BD2; 9.89 on BRD3-BD1 (BromoKdELECT); 9.54 on BRD4-BD1 [17]; 9.66 at BRDT-BD1 [18]. Moreover, at BRD2-BD1 [6] (over BRD2-BD2, BromoKdELECT Kd ratio), the BRD2-BD1 selectivity turned out to be 420 fold. Moreover, the BRD3-BD1 selectivity at BRD3-BD1 (over BRD3-BD2, BromoKdELECT Kd ratio) is recorded as 5,920 fold. Besides, the pEC50 in the data set with MV4;11 cells [7] (Table S6, NE = not efficient, read-out: MV4-11 EC50 (viability)) is 8.10. The “Effect on the cell cycle, MV4;11” value in the data set with MV4;11 cells [9] is “G1 arrest”. The “Effect on the cell cycle, MOLM-13” value in the data set with MOLM-13 cells [10] is listed as “G1 arrest”. Moreover, the “Induction of apoptosis (Annexin V+ cells), MV4;11” value with MV4;11 cells [11] is reported as “apoptosis”. Further, in the data set with MOLM-13 cells [12], the “Induction of apoptosis (Annexin V+ cells), MOLM-13” value is recorded as “apoptosis”. In addition, in [13], the “MYC expression, MOLM-13” value was “suppressed”. Also, the “MYC expression, MV4;11” value in data set [14] is given as “suppressed”. Moreover, at BRD4-BD1 [15] (ratio of AlphaScreen IC50 values, NE = not efficient), the “BRD4-BD1 vs. BRD4-BD2 fold (BRD4-BD1 selectivity)” value stood at 3909 fold. Moreover, the “fold more potent than the S-enantiomer (CDD-786) in inhibiting BRDT-BD1” value on BRDT-BD1 [16] worked out at 50 fold. At BRDT-BD1 [16] (AlphaScreen), the “fold more potent than (+)-JQ1 for BRDT-BD1” value is listed as 22 fold. The “fold more selective than (+)-JQ1 for BRDT-BD1” value on BRDT-BD1 [16] (AlphaScreen) is given as ~2,200 fold.
For the compound `Cc1cc2c(-c3ccco3)cnc(N[C@@H]3CCN(C)C[C@H]3C(=O)NC3CCCCC3)c2[nH]c1=O` [GSK789], the negative-log Kd (pKd) is 7.30 at TAF1-BD2 and 6.40 at TAF1L-BD2.
